# Strand notation (5' to 3'): a small letter for the sugar, then the base; units joined by * are phosphorothioate-linked, units joined directly phosphodiester-linked; [ ] holds rarer units or linkages, { } end groups; capitals alone tell only the bases. e = 2'-O-(2-methoxyethyl) (MOE); [5mC] = 5-methylcytosine; d = 2'-deoxy (DNA)
# Test system: human PKK mRNA
# Assay: Antisense inhibition of human PKK mRNA in HepaRG cells, 5,000 nM (Example 2)
# Format: cell-based
# In short: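 HepaRG cells (20,000/well) electroporated with 5,000 nM MOE gapmer (phosphorothioate backbone, 5-methylcytosines) and harvested after ~24 h. PKK mRNA measured by qRT-PCR with primer probe set RTS3454, normalized to RIBOGREEN total RNA; percent inhibition versus untreated cells.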
# [1] = HepaRG cells, 5,000 nM antisense oligonucleotide, 5-10-5 gapmers, Table 16
# [2] = Table 8, HepaRG cells, electroporation with 5,000 nM antisense oligonucleotide, approx. 24 hours, PKK mRNA by RT-PCR (RTS3454), relative to untreated control cells
# [3] = Table 13, human PKK mRNA in HepaRG cells, 5-10-5 gapmers
# [4] = HepaRG cells, electroporation with 5,000 nM antisense oligonucleotide, approximately 24 hours, PKK mRNA by RT-PCR (RTS3454), relative to untreated control cells, Table 6 experiment
# [5] = Table 7, HepaRG cells, electroporation with 5,000 nM antisense oligonucleotide, approx. 24 hours, PKK mRNA by RT-PCR (RTS3454), relative to untreated control cells
substance,measurement,setting,value
547711 (antisense e[5mC]*e[5mC]*eT*eT*eT*dA*dG*d[5mC]*d[5mC]*dA*d[5mC]*dT*d[5mC]*d[5mC]*dT*e[5mC]*eT*eT*eG*e[5mC]) [compound 547711],% inhibition,[1],45%
547437 (antisense e[5mC]*eT*e[5mC]*eT*e[5mC]*d[5mC]*d[5mC]*d[5mC]*dA*dA*dG*dA*dA*dG*dA*eG*eT*eT*eT*eG) [compound 547437],% inhibition,[2],50%
547529 (antisense eA*e[5mC]*eA*e[5mC]*eA*d[5mC]*dA*dG*dT*d[5mC]*dA*dT*dG*dG*dA*eG*eA*eT*e[5mC]*eT) [compound 547529],% inhibition,"HepaRG cells, electroporation, 5,000 nM antisense oligonucleotide, approx. 24 hours, primer probe set RTS3454, relative to untreated control cells, Table 12",49%
546841 (e[5mC]*eA*e[5mC]*eT*eG*dT*d[5mC]*d[5mC]*dT*dA*dT*dA*dA*d[5mC]*dT*e[5mC]*eT*eA*eA*e[5mC]; antisense) [compound 546841],% inhibition,[3],38%
547572 (eA*eA*eA*eT*eG*dA*d[5mC]*dA*d[5mC]*d[5mC]*dA*dA*dA*dA*dT*eT*e[5mC]*eG*e[5mC]*eT; antisense) [compound 547572],% inhibition,[3],40%
546831 (eT*e[5mC]*eT*eA*eA*d[5mC]*dA*dG*dT*dA*dT*d[5mC]*dA*d[5mC]*dT*eG*eT*eA*e[5mC]*eT; antisense) [compound 546831],% inhibition,[3],79%
547317 (antisense e[5mC]*eA*eG*eA*eA*dA*d[5mC]*dT*dG*d[5mC]*dA*d[5mC]*d[5mC]*dT*dG*eT*eT*e[5mC]*eG*eA) [compound 547317],% inhibition,[4],75%
547433 (eG*eT*e[5mC]*e[5mC]*e[5mC]*d[5mC]*dA*dG*dT*dG*dT*dT*dA*d[5mC]*dA*e[5mC]*eA*eA*eT*e[5mC]; antisense) [compound 547433],% inhibition,[2],63%
546218 (antisense eT*eG*eG*eT*e[5mC]*d[5mC]*dG*dA*d[5mC]*dA*d[5mC]*dA*d[5mC]*dA*dA*eA*eA*eG*e[5mC]*eA) [compound 546218],% inhibition,[5],71%
547754 (eG*eG*eG*eA*eT*dT*dG*dG*dT*dG*dG*dT*dT*dG*dG*eT*eG*eG*e[5mC]*eG; antisense) [compound 547754],% inhibition,"HepaRG cells, 5,000 nM antisense oligonucleotide, 5-10-5 gapmers, Table 17",47%
546234 (e[5mC]*e[5mC]*eA*eG*eA*dT*dA*dT*dG*dG*dT*dG*dT*dT*dT*eT*e[5mC]*eT*eT*eG; antisense) [compound 546234],% inhibition,[5],69%
547369 (eA*eA*eG*e[5mC]*eA*dT*d[5mC]*dT*dG*dG*dA*dG*dT*dG*dA*eG*eA*eA*e[5mC]*e[5mC]; antisense) [compound 547369],% inhibition,[5],76%
546935 (e[5mC]*eG*eT*eG*eG*dT*dT*dA*dG*d[5mC]*d[5mC]*dT*dG*dA*d[5mC]*eA*eT*e[5mC]*eT*e[5mC]; antisense) [compound 546935],% inhibition,[1],86%
547387 (eT*eG*eG*eT*eG*dT*dT*dT*dT*d[5mC]*dT*dT*dG*dA*dG*eG*eA*eG*eT*eA; antisense) [compound 547387],% inhibition,[5],73%
548767 (antisense eT*eA*eT*e[5mC]*dA*d[5mC]*dT*dG*dT*d[5mC]*d[5mC]*dT*dA*eT*eA*eT*e[5mC]) [compound 548767],% inhibition,"human PKK mRNA, HepaRG cells, 5,000 nM antisense oligonucleotide, Table 18",59%
546174 (antisense e[5mC]*e[5mC]*eT*eG*eT*dT*d[5mC]*dG*dA*dT*dG*dT*dA*d[5mC]*dT*eT*eT*eT*eG*eG) [compound 546174],% inhibition,[4],74%
547321 (antisense eT*e[5mC]*eA*eA*eG*dG*dA*dA*dT*dG*dT*d[5mC]*d[5mC]*dA*dG*eA*eA*eA*e[5mC]*eT) [compound 547321],% inhibition,[4],53%
547376 (eG*eA*eA*eT*eG*dT*dA*dA*dA*dG*dA*dA*dG*dA*dG*eG*e[5mC]*eA*eG*eT; antisense) [compound 547376],% inhibition,[5],43%
547652 (eT*e[5mC]*eA*e[5mC]*eT*dG*dT*dA*d[5mC]*d[5mC]*dT*dA*dT*dA*dA*e[5mC]*eA*eG*eT*eA; antisense) [compound 547652],% inhibition,"human PKK mRNA, HepaRG cells, 5-10-5 motif oligonucleotides targeting SEQ ID NO: 1 and 10",59%
546822 (eA*e[5mC]*eT*eA*eG*dT*dT*dT*d[5mC]*d[5mC]*dT*dA*dT*dA*dA*e[5mC]*eT*eG*e[5mC]*eT; antisense) [compound 546822],% inhibition,[3],32%
